Laboratory results reported in the supplement of paper PMC10307832.

Legend:
Assay in all cases: relative viability (nuclei count vs DMSO), 5 days (fraction); higher = more cells survive
BX 795 = compound: O=C(NCCCNc1nc(Nc2cccc(NC(=O)N3CCCC3)c2)ncc1I)c1cccs1 [BX 795]
How it was run: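 Viability was read as treated-well nuclei divided by vehicle-well nuclei, using the median across plates. Lung cancer cell lines in 1536-well plates were kept overnight at 37 °C, pinned with five √10-spaced library-drug doses, and after 5 days were Hoechst-stained, imaged at 4× and counted in MetaXpress. Plates passed only with control CV below 25% and at least one doubling.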

BX 795 + Luminespib = compound: O=C(NCCCNc1nc(Nc2cccc(NC(=O)N3CCCC3)c2)ncc1I)c1cccs1 [BX 795] + CCNC(=O)c1noc(-c2cc(C(C)C)c(O)cc2O)c1-c1ccc(CN2CCOCC2)cc1 [Luminespib] (partner 0.01 µM)
How it was run: (§1)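 Values are medians from duplicate plates. Each reflects relative viability, defined as the nuclei count of treated wells over that of vehicle wells. Lung cancer cell lines in 1536-well plates were pin-tool dosed one day after seeding with one drug alone or with a fixed anchor-drug dose plus five library-drug doses (not always all listed) in √10 steps, then fixed, stained and imaged at 4× after 5 days.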

BX 795 + Lapatinib = compound: O=C(NCCCNc1nc(Nc2cccc(NC(=O)N3CCCC3)c2)ncc1I)c1cccs1 [BX 795] + CS(=O)(=O)CCNCc1ccc(-c2ccc3ncnc(Nc4ccc(OCc5cccc(F)c5)c(Cl)c4)c3c2)o1 [Lapatinib] (partner 2 µM)
How it was run: as §1

BX 795 + Crizotinib = compound: O=C(NCCCNc1nc(Nc2cccc(NC(=O)N3CCCC3)c2)ncc1I)c1cccs1 [BX 795] + C[C@@H](Oc1cc(-c2cnn(C3CCNCC3)c2)cnc1N)c1c(Cl)ccc(F)c1Cl [Crizotinib] (partner 1 µM)
How it was run: as §1

BX 795 + Vorinostat = compound: O=C(NCCCNc1nc(Nc2cccc(NC(=O)N3CCCC3)c2)ncc1I)c1cccs1 [BX 795] + O=C(CCCCCCC(=O)Nc1ccccc1)NO [Vorinostat] (partner 1 µM)
How it was run: as §1

SK-LU-1 gave a relative viability (BX 795; 0.04 µM) of 0.91, a relative viability (BX 795; 0.1265 µM) of 1.18 and a relative viability (BX 795; 0.4 µM) of 0.629. It also gave a relative viability (BX 795; 1.265 µM) of 0.836, a relative viability (BX 795 + Luminespib; first compound 0.04 µM) of 0.224 and a relative viability (BX 795 + Luminespib; first compound 0.1265 µM) of 0.217. For the same cell line, the relative viability (BX 795 + Luminespib; first compound 1.265 µM) was 0.173, the relative viability (BX 795 + Lapatinib; first compound 0.04 µM) was 0.883 and the relative viability (BX 795 + Lapatinib; first compound 0.1265 µM) was 1.1. It also gave a relative viability (BX 795 + Lapatinib; first compound 0.4 µM) of 0.801, a relative viability (BX 795 + Lapatinib; first compound 1.265 µM) of 0.469 and a relative viability (BX 795 + Crizotinib; first compound 0.04 µM) of 0.96. For the same cell line, the relative viability (BX 795 + Crizotinib; first compound 0.1265 µM) was 0.92, the relative viability (BX 795 + Crizotinib; first compound 0.4 µM) was 0.459 and the relative viability (BX 795 + Crizotinib; first compound 1.265 µM) was 0.498. For the same cell line, the relative viability (BX 795 + Vorinostat; first compound 0.04 µM) was 0.674, the relative viability (BX 795 + Vorinostat; first compound 0.1265 µM) was 0.764 and the relative viability (BX 795 + Vorinostat; first compound 0.4 µM) was 0.595. It also gave a relative viability (BX 795 + Vorinostat; first compound 1.265 µM) of 0.593.
For SK-MES-1, the relative viability (BX 795; 0.04 µM) was 1.06, the relative viability (BX 795; 0.1265 µM) was 0.979 and the relative viability (BX 795; 0.4 µM) was 0.932. It also gave a relative viability (BX 795; 1.265 µM) of 0.761, a relative viability (BX 795 + Luminespib; first compound 0.04 µM) of 0.857 and a relative viability (BX 795 + Luminespib; first compound 0.1265 µM) of 0.757. For the same cell line, the relative viability (BX 795 + Luminespib; first compound 0.4 µM) was 0.78, the relative viability (BX 795 + Luminespib; first compound 1.265 µM) was 0.5 and the relative viability (BX 795 + Lapatinib; first compound 0.04 µM) was 0.509. It also gave a relative viability (BX 795 + Lapatinib; first compound 0.1265 µM) of 0.45, a relative viability (BX 795 + Lapatinib; first compound 0.4 µM) of 0.458 and a relative viability (BX 795 + Lapatinib; first compound 1.265 µM) of 0.385. It also gave a relative viability (BX 795 + Crizotinib; first compound 0.04 µM) of 1.13, a relative viability (BX 795 + Crizotinib; first compound 0.1265 µM) of 0.939 and a relative viability (BX 795 + Crizotinib; first compound 0.4 µM) of 0.836. It also gave a relative viability (BX 795 + Crizotinib; first compound 1.265 µM) of 0.78, a relative viability (BX 795 + Vorinostat; first compound 0.04 µM) of 1.1 and a relative viability (BX 795 + Vorinostat; first compound 0.1265 µM) of 1.11. It also gave a relative viability (BX 795 + Vorinostat; first compound 0.4 µM) of 0.545 and a relative viability (BX 795 + Vorinostat; first compound 1.265 µM) of 0.748.
With SW 1573 the relative viability (BX 795; 0.04 µM) was 0.918, the relative viability (BX 795; 0.1265 µM) was 0.984 and the relative viability (BX 795; 0.4 µM) was 1.1. For the same cell line, the relative viability (BX 795; 1.265 µM) was 0.651, the relative viability (BX 795 + Luminespib; first compound 0.04 µM) was 0.214 and the relative viability (BX 795 + Luminespib; first compound 0.1265 µM) was 0.488. For the same cell line, the relative viability (BX 795 + Luminespib; first compound 0.4 µM) was 0.514, the relative viability (BX 795 + Luminespib; first compound 1.265 µM) was 0.172 and the relative viability (BX 795 + Lapatinib; first compound 0.04 µM) was 1.13. It also gave a relative viability (BX 795 + Lapatinib; first compound 0.1265 µM) of 1.18, a relative viability (BX 795 + Lapatinib; first compound 0.4 µM) of 1.26 and a relative viability (BX 795 + Lapatinib; first compound 1.265 µM) of 0.781. For the same cell line, the relative viability (BX 795 + Crizotinib; first compound 0.04 µM) was 0.832, the relative viability (BX 795 + Crizotinib; first compound 0.1265 µM) was 0.887 and the relative viability (BX 795 + Crizotinib; first compound 0.4 µM) was 0.584. It also gave a relative viability (BX 795 + Crizotinib; first compound 1.265 µM) of 0.667, a relative viability (BX 795 + Vorinostat; first compound 0.04 µM) of 0.862 and a relative viability (BX 795 + Vorinostat; first compound 0.1265 µM) of 0.875. The relative viability (BX 795 + Vorinostat; first compound 0.4 µM) was 0.558 and the relative viability (BX 795 + Vorinostat; first compound 1.265 µM) was 0.276.
UMC-11 was tested, and the relative viability (BX 795; 0.04 µM) was 0.896, the relative viability (BX 795; 0.1265 µM) was 0.995 and the relative viability (BX 795; 0.4 µM) was 0.802. It also gave a relative viability (BX 795; 1.265 µM) of 0.675, a relative viability (BX 795 + Luminespib; first compound 0.04 µM) of 0.751 and a relative viability (BX 795 + Luminespib; first compound 0.1265 µM) of 1.06. The relative viability (BX 795 + Luminespib; first compound 0.4 µM) was 1.07, the relative viability (BX 795 + Luminespib; first compound 1.265 µM) was 0.271 and the relative viability (BX 795 + Lapatinib; first compound 0.04 µM) was 0.949. The relative viability (BX 795 + Lapatinib; first compound 0.1265 µM) was 1.05, the relative viability (BX 795 + Lapatinib; first compound 0.4 µM) was 0.757 and the relative viability (BX 795 + Lapatinib; first compound 1.265 µM) was 0.333. It also gave a relative viability (BX 795 + Crizotinib; first compound 0.04 µM) of 0.608, a relative viability (BX 795 + Crizotinib; first compound 0.1265 µM) of 0.584 and a relative viability (BX 795 + Crizotinib; first compound 0.4 µM) of 0.322. It also gave a relative viability (BX 795 + Crizotinib; first compound 1.265 µM) of 0.0915, a relative viability (BX 795 + Vorinostat; first compound 0.04 µM) of 0.422 and a relative viability (BX 795 + Vorinostat; first compound 0.1265 µM) of 0.308. The relative viability (BX 795 + Vorinostat; first compound 0.4 µM) was 0.354 and the relative viability (BX 795 + Vorinostat; first compound 1.265 µM) was 0.348.
